# What was measured:
# hippocampal microvessels = test: Electron microscopy of the cerebrovascular system; type: in vivo, male C57BI/6 mice; conditions: age 24 months
# Description: (§1) The experiment was performed with male C57BI/6 mice (Harlan, Horst, The Netherlands). Animals were individually housed under a 12 hours light/12 hours dark cycle with lights on at 8:00. Food and drinking water were provided ad libitum, except for the period of behavioural testing as described below. The experiment was started with 60 mice, half of which served as control (CON) and half of which received resveratrol in their food from the age of 1 year onwards (RES). Between the ages of 18 and 20 month, spatial learning performance of the animals was studied in a Y-maze test. At the age of 24 month, brains were collected and processed for immunocytochemistry to asses cholinergic parameters and electron microscopy for several cerebrovascular analyses. The procedures concerning animal care and treatment were in accordance with the regulations of the ethical committee for the use of experimental animals of the University of Groningen.
# At the age of 24 months animals were sacrificed for histochemical and electronmicroscopical analysis. Mice were anaesthetized by a high dose of pentobarbital sodium salt (Nembutal, 60 mg/kg bodyweight) and transcardially perfused with heparinised saline followed by 4% phosphate buffered paraformaldehyde. After perfusions, brains were removed from the skull and kept in 0.01 M PBS overnight. […]
# After perfusion, 18 brains were prepared for electron microscopy using standard methods. […] The samples were then coverslipped with DPX and analyzed under a light microscope. […] Finally, the samples were analyzed and photographs were taken with a Philips TM10 transmission electron microscope.
# For quantitative analysis, approximately 4000 μm^2 tissue surface was scanned systematically in each region, and 61±10 microvascular cross sections were examined in each sample. Vascular density was calculated for a standard surface area with the help of the sample grid. In addition to microvessel density, the occurrence of the following features were quantitated: luminal endothelial protrusions, large empty endothelial vacuoles and basement membrane thickening. […] The number of microvessels displaying any of the noted abnormalities was counted and expressed as percentage of the total number of microvessels examined. Capillaries and arterioles were analyzed separately. Since arterioles were encountered at high enough number for statistical analysis only in the hippocampal vascular layer, quantitative analysis of arteriolar condition was performed for this region of the hippocampus alone.
# (§2) Behavioural performance was statistically analyzed with a one way ANOVA paradigm for repeated measures. Immunocytochemical data and EM data were statistically analyzed with an independent samples T-test (2-tailed). Data are expressed as averages ±S.E.M. P<0.05 was considered as significant.
# aged mice [1] = test: Y-maze spatial learning test; type: in vivo, male C57BI/6 mice
# Description: as §1
# To examine cognitive performance, the mice were subjected to a Y-maze test in which they had to learn the location of a food reward in one of two accessible choice arms. […] The home cages of the mice were equipped with a small sliding door that connected to the starting arm. One of the two test arms was baited with a food reward consisting of small crumbs of the regular food. Food crumbs were also placed below perforations at the end of the two test arms to prevent animals from discriminating between baited and non-baited arms by olfactory cues. […]
# The Y-maze test took place during the first half of the light phase between 10:00 and 14:00 in a room adjacent to the home cage room. […] A visit to the baited arm was recorded as a correct trial. […]
# as §2
# aged mice [2] = test: Open field test (general explorative activity); type: in vivo, male C57BI/6 mice; conditions: chronic supplementation
# Description: as §1, with “The procedures concerning animal care and treatment were in accordance with the regulations of the ethical committee for the use of experimental animals of the University of Groningen.” left out
# To examine general explorative activity, mice were subjected to an open-field test for 5 minutes. […] Position and locomotion of the mice was recorded and analyzed with a computerized video tracking system (Ethovision, Noldus Information Technology, Wageningen, The Netherlands). The number of visits and time spend in each of the two zones was determined. […]
# as §2
# [3] = system: cholinergic system (nucleus basalis, hippocampus); test: AChE histochemistry of cholinergic cells and fibres; type: in vivo, male C57BI/6 mice; conditions: age 24 months, RES versus CON
# Description: The experiment was performed with male C57BI/6 mice (Harlan, Horst, The Netherlands). Animals were individually housed under a 12 hours light/12 hours dark cycle with lights on at 8:00. Food and drinking water were provided ad libitum, except for the period of behavioural testing as described below. The experiment was started with 60 mice, half of which served as control (CON) and half of which received resveratrol in their food from the age of 1 year onwards (RES). Between the ages of 18 and 20 month, spatial learning performance of the animals was studied in a Y-maze test. […]
# For histology, brain tissue was cryoprotected in 30% sucrose in 0.1 M phosphate buffer for 48 h after which 20 μm sections were cut with a cryostat (Leica CM3050). […] Cells positive for AChE were quantified in sections containing nucleus basalis (around bregma −0.7) and AChE fibre density measurements were performed by a computerized image analysis system Quantimet (Leica) in the dorsal hippocampus.
# as §2
# [4] = Survival, food intake, body weight and general health under chronic dietary supplementation; type: in vivo
# Description: as §1
# To rule out differences in food intake between animals on a control diet and resveratrol-supplemented diet, food intake and body weight were monitored every two weeks. To establish whether resveratrol provided in the food enters the circulation, a pilot experiment was performed in which blood was collected from mice by decapitation after 1 day and 30 days of supplementation. Plasma concentrations of resveratrol were measured. After 1 day of supplementation, resveratrol levels in the plasma were 88.5 μg/l at the end of the dark phase or active phase, when mice consume most of their food, and 41 μg/l at the end of the light phase or resting phase (n=3 each). After 1 month of supplementation, the levels were 102.7 and 30.7 μg/l at the end of active phase and rest phase, respectively (n=3 each). These measurements confirm that resveratrol ingested via the food indeed entered the circulation, and the levels appeared to fluctuate over the day in a fashion that paralleled food intake. Supplementation of resveratrol via food thus seemed an appropriate and simple method for further studies.
# Animals received resveratrol in their food from 1 year of age onwards. […]
# [5] = hippocampal microvessels, versus control
smiles,measurement,setting,value
"Oc1ccc(C=Cc2cc(O)cc(O)c2)cc1 [Resveratrol, 3,5,4′-trihydroxystilbene]","vascular density in the hippocampus, higher than in control animals","hippocampal microvessels; chronic supplementation, p=0.019",about 15%
same,number of microvessels with endothelial vacuoles,"hippocampal microvessels; hippocampal arterioles, versus control, p=0.05",significantly reduced
same,occurrence of basement membrane thickening,hippocampal microvessels; [5],not significantly affected
same,occurrence of endothelial processes,hippocampal microvessels; [5],not significantly affected
same,Y-maze final level of performance on day 3 and retention trial on day 10,aged mice [1]; RES versus CON,not different
same,Y-maze performance on the second day of the training phase,"aged mice [1]; posthoc test, RES versus CON, p<0.05",performed better then CON animals
same,Y-maze learning (number of correct choices on day 1 to 3),"aged mice [1]; training phase, age 18-20 months, repeated measures ANOVA p=0.016",improved learning
same,more time spent in the centre of the arena than control animals,"aged mice [2]; 5 minutes open field test, p=0.003",about 50%
same,locomotion (total distance covered) in open field,"aged mice [2]; 5 minutes test, RES versus CON",the same amount of locomotion
same,cholinergic cell number in the nucleus basalis,[3],did not reveal any difference
same,cholinergic fibre density in the CA1 and dentate gyrus of the hippocampus,[3],unchanged
same,"food intake, growth and body weight","[4]; mouse, in vivo","did not affect food intake, growth and body weight"
same,general health (regular visual inspection),"[4]; mouse, in vivo",did not indicate obvious differences in general health
same,mortality rate,"[4]; resveratrol in food from 1 year to 24 months of age, RES versus CON",no significant differences in mortality rate
